Converted amounts (≈) assume the structure as drawn.
Assays:
physchem = conditions: pH 7.4, aqueous buffer, thermodynamic from solid
Experimental: To investigate this special property of the complexes, 50 mg of complex containing the basic drug was dissolved in 25 ml of phosphate buffer 0.1 M, pH 7.4. 100 μl samples were taken from this solution and measured for 1-96 hours depending on the complex being investigated. […] Solid drug particles with and without cyclodextrin were also weighed and placed in the buffer to show the difference in solubility between samples of the drug alone, drug and cyclodextrin in a standard mixture, and drug in complex with cyclodextrin.
The solid complexes were heated in a vacuum oven for 4 days at 88° C. and 0.13×10^2 Pa. Each complex contained about 0.2 equivalents of acetic acid. A 50 mg sample of each complex was dissolved in 25 ml of the buffer. […] 12 mg of solid Basic drug A particles were also dissolved in 50 ml of the buffer with or without 38 mg of HPβCD to show the effect of complexing.

[1] = Stability of the drug in complexes during heating in the vacuum oven (HPLC); type: physicochemical; conditions: complexes heated at 90° C. for several days
Experimental: All solutions were lyophilized, then the obtained complex was sieved through a 300 μm sieve and heated in a vacuum oven at 60-90° C. for several days, depending on the drug being investigated.
The amount of drug per gram sample was determined on a high performance liquid chromatographic (HPLC) component system, consisting of ConstaMetric 3200 solvent delivery system operated at 1.5 ml/min, a SpectroMonitor 3200 UV/VIS variable-wavelength detector, a Merck-Hitachi AS-2000A autosampler, Merck Hitachi D-2500 Chromato-Integrator and a Phenomex ODS 5 μm (150×4.6 mm) column.
Selected Basic drug A complexes were analysed after heating in the vacuum oven at 90° C. for several days.

solubility (physchem): 34 µg/mL (≈ 75.8 µM)
stability during heating in the vacuum oven [1]: stable during heating in the vacuum oven
Structure (SMILES): Cc1ccc(N2CCN(C)CC2)c2c1CC[C@@H](NC(=O)c1ccc(N3CCOCC3)cc1)C2 [Basic drug A, (R)-N-[5-methyl-8-(4-methylpiperazin-1-yl)-1,2,3,4-tetrahydro-2-naphthyl]-4-morpholinobenzamide]
